Reference: ChEMBL document CHEMBL1201862, “PubChem BioAssay data set” (2004)
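The compound was tested at five concentrations on cells cultured in 96-well plates, with a 48-hour exposure period. Abbreviation: GI50, concentration required for 50% inhibition of growth.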 The source made the active and inactive calls. Cut-off read from the data, not from the text of the source: active = GI50 up to about 1.1 µM and inactive = higher.

Legend:
Test in all cases: NCI tumour cell line growth inhibition, 48 h
[1] = tested on: NCI-H522
[2] = tested on: U-251
[3] = tested on: TK-10
[4] = tested on: M14
[5] = tested on: MDA-MB-231
[6] = tested on: T47D
[7] = tested on: SK-OV-3
[8] = tested on: SNB-75
[9] = tested on: SF-539
[10] = tested on: IGROV-1
[11] = tested on: BT-549
[12] = tested on: UO-31
[13] = tested on: SK-MEL-28
[14] = tested on: MDA-N
[15] = tested on: RXF 393
[16] = tested on: OVCAR-5
[17] = tested on: UACC-62
[18] = tested on: SF-268
[19] = tested on: HT-29
[20] = tested on: SR

## O=C(CCCc1ccccn1)c1ccccc1
[1]
  GI50: > 100 µM (inactive)
[2]
  GI50: > 100 µM (inactive)
[3]
  GI50: > 100 µM (inactive)
[4]
  GI50: > 100 µM (inactive)
[5]
  GI50: > 100 µM (inactive)
[6]
  GI50: > 100 µM (inactive)
[7]
  GI50: > 100 µM (inactive)
[8]
  GI50: > 100 µM (inactive)
[9]
  GI50: > 100 µM (inactive)
[10]
  GI50: > 100 µM (inactive)
[11]
  GI50: > 100 µM (inactive)
[12]
  GI50: > 100 µM (inactive)
[13]
  GI50: > 100 µM (inactive)
[14]
  GI50: > 100 µM (inactive)
[15]
  GI50: > 100 µM (inactive)
[16]
  GI50: > 100 µM (inactive)
[17]
  GI50: > 100 µM (inactive)
[18]
  GI50: > 100 µM (inactive)
[19]
  GI50: > 100 µM (inactive)

## O=C1c2ccccc2C(=O)c2c1ccc(C1C(=O)c3ccccc3C1=O)c2-c1c(C2C(=O)c3ccccc3C2=O)ccc2c1C(=O)c1ccccc1C2=O
[1]
  GI50: > 100 µM (inactive)
[2]
  GI50: > 100 µM (inactive)
[3]
  GI50: > 100 µM (inactive)
[4]
  GI50: > 100 µM (inactive)
[5]
  GI50: 47.3 µM (inactive)
[6]
  GI50: > 100 µM (inactive)
[7]
  GI50: > 100 µM (inactive)
[8]
  GI50: > 100 µM (inactive)
[9]
  GI50: > 100 µM (inactive)
[10]
  GI50: > 100 µM (inactive)
[11]
  GI50: > 100 µM (inactive)
[12]
  GI50: > 100 µM (inactive)
[13]
  GI50: > 100 µM (inactive)
[14]
  GI50: > 100 µM (inactive)
[15]
  GI50: > 100 µM (inactive)
[16]
  GI50: > 100 µM (inactive)
[17]
  GI50: > 100 µM (inactive)
[18]
  GI50: > 100 µM (inactive)
[19]
  GI50: > 100 µM (inactive)

## O=Cc1ccc(-c2ccc(-c3ccc(C=O)s3)o2)s1
[1]
  GI50: 15 µM (inactive)
[2]
  GI50: 1.34 µM (inactive)
[3]
  GI50: 1.46 µM (inactive)
[4]
  GI50: > 100 µM (inactive)
[5]
  GI50: > 100 µM (inactive)
[7]
  GI50: > 97.3 µM (inactive)
[8]
  GI50: 29.7 µM (inactive)
[9]
  GI50: > 82.4 µM (inactive)
[10]
  GI50: 3.27 µM (inactive)
[11]
  GI50: 77.3 µM (inactive)
[12]
  GI50: 68.5 µM (inactive)
[13]
  GI50: 98.4 µM (inactive)
[14]
  GI50: 60.3 µM (inactive)
[20]
  GI50: > 40.8 µM (inactive)
[15]
  GI50: 0.233 µM (active)
[16]
  GI50: 2.14 µM (inactive)
[17]
  GI50: 0.108 µM (active)
[18]
  GI50: > 100 µM (inactive)
[19]
  GI50: > 96.2 µM (inactive)

## CC(/C=C/c1ccc([N+](=O)[O-])o1)=N/N1CC(CN2CCOCC2)OC1=O (stereo unspecified)
[2]
  GI50: 28.5 µM (inactive)
[3]
  GI50: 45.1 µM (inactive)
[4]
  GI50: 17.3 µM (inactive)
[5]
  GI50: 23.6 µM (inactive)
[6]
  GI50: 16.5 µM (inactive)
[7]
  GI50: 52.2 µM (inactive)
[9]
  GI50: 22.9 µM (inactive)
[11]
  GI50: 6.58 µM (inactive)
[12]
  GI50: 21.3 µM (inactive)
[13]
  GI50: 17.3 µM (inactive)
[14]
  GI50: 18.6 µM (inactive)
[20]
  GI50: 15.6 µM (inactive)
[16]
  GI50: 47.3 µM (inactive)
[17]
  GI50: 17.3 µM (inactive)
[18]
  GI50: 17.7 µM (inactive)
[19]
  GI50: 31.4 µM (inactive)

## C[C@H]1CC[C@@H]2[C@@H](C)C[C@H]3[C@@H]4C(C)(C)OC(=O)[C@]4(C)C(=O)[C@@]23C1=O
[1]
  GI50: 50.7 µM (inactive)
[3]
  GI50: > 100 µM (inactive)
[4]
  GI50: > 100 µM (inactive)
[5]
  GI50: 42.5 µM (inactive)
[6]
  GI50: 14 µM (inactive)
[7]
  GI50: > 100 µM (inactive)
[8]
  GI50: > 100 µM (inactive)
[9]
  GI50: > 100 µM (inactive)
[10]
  GI50: > 100 µM (inactive)
[11]
  GI50: > 100 µM (inactive)
[13]
  GI50: > 100 µM (inactive)
[14]
  GI50: > 100 µM (inactive)
[16]
  GI50: > 100 µM (inactive)
[17]
  GI50: > 100 µM (inactive)
[18]
  GI50: > 100 µM (inactive)
[19]
  GI50: > 100 µM (inactive)

## Cc1ccc(S(=O)(=O)N2CCSCCSCCN(S(=O)(=O)c3ccc(C)cc3)CCN(S(=O)(=O)c3ccc(C)cc3)CC2)cc1
[1]
  GI50: > 100 µM (inactive)
[2]
  GI50: > 100 µM (inactive)
[3]
  GI50: > 100 µM (inactive)
[4]
  GI50: > 100 µM (inactive)
[5]
  GI50: > 100 µM (inactive)
[6]
  GI50: > 100 µM (inactive)
[7]
  GI50: > 100 µM (inactive)
[9]
  GI50: > 100 µM (inactive)
[10]
  GI50: > 100 µM (inactive)
[11]
  GI50: > 100 µM (inactive)
[12]
  GI50: > 100 µM (inactive)
[13]
  GI50: > 100 µM (inactive)
[14]
  GI50: > 100 µM (inactive)
[15]
  GI50: > 100 µM (inactive)
[16]
  GI50: > 100 µM (inactive)
[18]
  GI50: > 100 µM (inactive)
[19]
  GI50: > 100 µM (inactive)
